Experimental data: US20080318892A1, “METHODS AND FORMULATIONS FOR PROTECTING CELLS, AND FOR TREATING DISEASES AND CONDITIONS BY OPTIMIZING THE INTRACELLULAR CONCENTRATION OF NAD” (priority 2007, published 2008)

Tested on: SIRT1
Experiment: SIRT1 deacetylase activity in live SMCs (Fluor de Lys-SIRT1 substrate, TSA-independent)
Type: cell-based, human
Conditions: SMCs overexpressing Nampt; p=0.03, n=4
Protocol: In vivo assessment of SIRT1 deacetylase activity. Cell-based assessment of SIRT1-like enzymatic activity was performed using the Fluor de lys-SIRT1 substrate (Biomol, Plymouth Meeting, Pa.), as previously described (de Boer, 2006). SMCs in phenol-red free M199 with 5% FBS were incubated for 2 h with 5 μM TSA followed by addition of the fluorogenic substrate for 4 h. Signal was quantified by spectrofluorimetry (Wallac, Wellesley, Mass.) and normalized to total protein content.
Assessment of SIRT1 Deacetylase Activity. SIRT1 deacetylase activity was quantified in live cells as previously reported (de Boer et al, 2006). SMCs cultured in phenol red-free M199 were incubated without serum for 2 h with 1 μM trichostatin A (Sigma, St. Louis, Mo., USA) followed by addition of 25 μM Fluor-de-Lys-SIRT1 fluorogenic substrate (Biomol, Plymouth Meeting, Pa., USA) for 4 h. Media containing fluorogenic substrate and reaction product was incubated with an equal volume of SIRT1 assay buffer containing 2 mM nicotinamide and developer (Biomol, Plymouth Meeting, Pa., USA). Signal was quantified by spectrofluorometry (Wallac VICTOR-1420, PerkinElmer Life Science, Waltham, Mass., USA) and normalized to total protein content

## PBEF: 52-55 kD protein, rate-limiting enzyme for NAD+ biosynthesis from nicotinamide; tested by retroviral cDNA overexpression in cells
  increase in SIRT1 activity: 86±4%
